Laboratory results reported in PMC12361874, “Common Food Additives Inhibit Carbonic Anhydrase Activity” (Journal of Biochemical and Molecular Toxicology, 2025).
“And” between values parts separate entries of the source, which are not always exact repeats. Equal values may be shown once. Read-outs that look alike come from different tables or passages of the source. Where a SMILES comes first, the peptide text is derived from it.

How the values were obtained:
[1] = target: T1, bovine carbonic anhydrase (bCA) (Bos taurus, UniProt P00921); experiment: Inhibition of esterase activity (p-nitrophenyl acetate) of purified bCA; assay type: biochemical; conditions: for IC50 / IC50 bCA: esterase activity method, saturated substrate concentration
T1 construct: from tissue; host or cells: bovine blood hemolysate (erythrocytes are inferred)
Method: (§1) The human erythrocyte carbonic anhydrase isozymes hCAI and hCAII were eluted with 50 mM Na2HPO4 ‐ 1 M NaCl, pH: 6.3, and 0.1 M CH3COONa ‐ 0.5 M NaClO4, pH: 5.6, respectively (flow rate: 20 mL/h, fraction volume: 5 mL). The bovine enzyme was eluted with 0.1 M CH3COONa ‐ 0.5 M NaClO4 (pH: 5.6) buffer system. The protein elution by affinity column chromatography was monitored by absorbance measurement at 280 nm.
(§2) Carbonic anhydrase activity was also assayed by following esterase activity according to the method defined by Verpoorte et al. with slight modification. The enzyme hydrolyzes the substrate, p‐nitrophenyl acetate, to p‐nitrophenol or p‐nitrophenolate. The change in absorbance was measured spectrophotometrically at room temperature for a period of 3 min. The reaction mixture contained 0.5 mL of 0.05 M Tris–SO4 buffer (pH: 7.4), 0.75 mL of p‐NPA (3 mM), 0.1 mL of distilled water, and 0.15 mL of the enzyme solution (final volume 1.5 mL). […] All measurements were performed as triplicates. The method was used to determine the inhibitory activities of the food additives studied.
(§3) To determine the effect of all samples on bCA, hCAI, and hCAII isoenzymes esterase activity at saturated substrate concentration, activity (%) ‐ inhibitor concentration [I] graphs were plotted.

[2] = set-up: method as in Joint FAO/WHO Expert Committee on Food Additives; conditions: NL: not limited; ref Joint FAO/WHO Expert Committee on Food Additives; cited from earlier work
[3] = target: T2, hCAI isoenzyme purified from human erythrocytes (Homo sapiens, UniProt P00915); experiment: Inhibition of esterase activity (p-nitrophenyl acetate) of purified hCAI; IC50, Ki, inhibition type; assay type: biochemical
T2 construct: hCAI isoenzyme purified from human erythrocytes; from tissue; host or cells: human erythrocytes
Method: as §1, §2, §3
Lineweaver–Burk lines were drawn for each inhibitor concentration. In the graph equation, Ki values were calculated by using Vmax=V^I max(1 + [I]/Ki) formula for semi‐competitive and Noncompetitive inhibition.

[4] = target: T3, hCAII isoenzyme purified from human erythrocytes (Homo sapiens, UniProt P00918); experiment: Inhibition of esterase activity (p-nitrophenyl acetate) of purified hCAII; assay type: biochemical; conditions: esterase activity method, saturated substrate concentration
T3 construct: […]; from tissue; host or cells: human erythrocytes
Method: as §1, §2, §3

hCAI [5] = tested on: hCAI; set-up: method as in PMID 27451209; conditions: in vitro; cited from earlier work
[6] = tested on: glandular stomach, colon and lungs of mice; set-up: method as in PMID 20686341; conditions: cited from earlier work
hCAI [7] = conditions: read-out: IC50(hCAI); cited from earlier work
hCAII [8] = conditions: read-out: IC50(hCAII); cited from earlier work
hCAII [9] = conditions: cited from earlier work
[10] = esterase activity method, saturated substrate concentration, read-out: IC50 hCAI

T1 sequence (P00921 whole entry): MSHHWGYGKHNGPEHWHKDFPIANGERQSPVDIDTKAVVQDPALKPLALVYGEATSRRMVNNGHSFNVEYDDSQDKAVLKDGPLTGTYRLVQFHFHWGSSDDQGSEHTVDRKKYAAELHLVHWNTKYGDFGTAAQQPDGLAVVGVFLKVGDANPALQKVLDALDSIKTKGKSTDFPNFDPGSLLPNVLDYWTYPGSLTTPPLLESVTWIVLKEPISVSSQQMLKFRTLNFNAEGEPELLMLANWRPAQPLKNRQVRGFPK
T2 sequence (P00915 whole entry): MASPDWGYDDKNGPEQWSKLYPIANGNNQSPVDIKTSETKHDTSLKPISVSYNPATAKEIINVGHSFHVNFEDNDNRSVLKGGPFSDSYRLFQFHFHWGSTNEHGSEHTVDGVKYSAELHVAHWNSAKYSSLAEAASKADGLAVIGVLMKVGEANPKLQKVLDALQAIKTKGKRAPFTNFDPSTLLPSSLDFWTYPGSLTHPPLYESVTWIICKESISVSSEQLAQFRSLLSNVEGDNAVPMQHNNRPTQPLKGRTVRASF

Compound | IC50 [3, 10] | IC50 [4] | IC50 [1] | ADI (acceptable daily intake) [2] | other results
CC1=CC(=O)NS(=O)(=O)O1 [Acesulfame K] | – | – | 2350.5 ± 0.1 µM | 15 mg/kg | inhibition at 2000 µg/mL ([1]; at 2 mg/mL concentration): 13%
O=S(=O)([O-])c1ccc2c(N=Nc3ccc(S(=O)(=O)[O-])c4ccccc34)c(O)c(S(=O)(=O)[O-])cc2c1.[Na+].[Na+].[Na+] [Amaranth] | 496.04 ± 0.04 µM | 603.11 ± 0.11 µM | 296.06 ± 0.06 µM | 0.5 mg/kg | –
O=C(O)c1ccccc1 [Benzoic Acid, Benzoic acid] | 2784 ± 0.06 µM | 2988.8 ± 0.06 µM | 1850.7 ± 0.05 µM | 5 mg/kg | –
CC(=O)Nc1ccc(S(=O)(=O)[O-])c2cc(S(=O)(=O)[O-])c(N=Nc3ccc(N=Nc4ccc(S(=O)(=O)[O-])cc4)c4ccc(S(=O)(=O)[O-])cc34)c(O)c12.[Na+].[Na+].[Na+].[Na+] [Brilliant Black BN] | 91.14 ± 0.09 µM | 502.45 ± 0.03 µM | 153.32 ± 0.04 µM | 1 mg/kg | –
CCN(Cc1cccc(S(=O)(=O)[O-])c1)c1ccc(C(=C2C=CC(=[N+](CC)Cc3cccc(S(=O)(=O)[O-])c3)C=C2)c2ccccc2S(=O)(=O)[O-])cc1.[Na+].[Na+] [Brilliant Blue FCF] | 208.04 ± 0.03 µM | 364.3 ± 0.09 µM | 136.26 ± 0.04 µM | 6 mg/kg | –
Cc1cc(C(C)(C)C)c(O)c(C(C)(C)C)c1 [Butylated Hydroxytoluene (BHT), Butylated hydroxytoluene (BHT)] | 462.89 ± 0.1 µM | 104.29 ± 0.09 µM | 512.85 ± 0.05 µM | 0.3 mg/kg | –
COc1cc(/C=C/C(=O)CC(=O)/C=C/c2ccc(O)c(OC)c2)ccc1O [Curcumin] | – | – | – | – | IC50 (hCAI [7]): 5.63 µM; IC50 (hCAII [8]): 4.81 µM
O=C1/C(=C2\Nc3ccc(S(=O)(=O)[O-])cc3C2=O)Nc2ccc(S(=O)(=O)[O-])cc21.[Na+].[Na+] [Indigo Carmine] | 1018.6 ± 0.04 µM | 242.03 ± 0.03 µM | 141.59 ± 0.07 µM | 5 mg/kg | –
O=S(=O)([O-])c1cc(S(=O)(=O)[O-])c2c(N=Nc3ccc(S(=O)(=O)[O-])c4ccccc34)c(O)ccc2c1.[Na+].[Na+].[Na+] [Ponceau 4R, Ponceau 4 R] | 678.27 ± 0.03 µM | 617.09 ± 0.01 µM | 239.84 ± 0.04 µM | 0.7 mg/kg | –

Further lines, with some results ahead:

IC50 [3, 10] | IC50 [4] | Compound | IC50 [1] | ADI (acceptable daily intake) [2] | other results
781.65 ± 0.06 µM | 504.04 ± 0.02 µM | COc1cc(S(=O)(=O)[O-])c(C)cc1N=Nc1c(O)ccc2cc(S(=O)(=O)[O-])ccc12.[Na+].[Na+] [Allura Red AC] | 762.12 ± 0.12 µM | 7 mg/kg | IC50 (hCAI [5]): 565 µM; DNA damage in in vivo comet assay [6]: DNA damage
1834.1 ± 0.1 µM | 2160.1 ± 0.07 µM | O=C1O[C@H]([C@@H](O)CO)C(O)=C1O [Ascorbic Acid, Ascorbic acid] | 993.67 ± 0.03 µM | – | –
2816.9 ± 0.03 µM | 2935.8 ± 0.02 µM | COC(=O)[C@H](Cc1ccccc1)NC(=O)[C@@H](N)CC(=O)O [Aspartame] (HELM PEPTIDE1{D.F.[CO[*:1]]}$$$$V2.0) | – | 40 mg/kg | IC50 bCA [1]: inactive; IC50 bCA ([1]; listed as aspartame): no effect
684 µM | 581.07 ± 0.03 µM | Cc1c(C(=O)O)c(O)cc2c1C(=O)c1c(O)c([C@@H]3O[C@H](CO)[C@@H](O)[C@H](O)[C@H]3O)c(O)c(O)c1C2=O [Carminic Acid, Carminic acid] | 586.92 ± 0.01 µM | 2.5 mg/kg | –
1799.4 ± 0.03 µM | 1241.9 ± 0.07 µM | O=C(O)CC(O)(CC(=O)O)C(=O)O [Citric Acid] | 616.9 ± 0.1 µM | – | –
19.37 ± 0.04 µM | 5 µM and 5.22 µM | O=C([O-])c1ccccc1-c1c2cc(I)c(=O)c(I)c-2oc2c(I)c([O-])c(I)cc12.[Na+].[Na+] [Erythrosine B] | 11 µM and 10.8 µM | 0.1 mg/kg | Type of inhibition ([3]; Lineweaver–Burk): Noncompetitive; IC50 ([3]; Table 3, read-out: IC50 (hCAI esterase activity)): 19 µM; Ki ([3]; [I] 0.015 mM, Lineweaver–Burk, read-out: Ki values): 2.9 µM; Ki ([3]; [I] 0.019 mM, Lineweaver–Burk, read-out: Ki values): 1.7 µM; Ki ([3]; [I] 0.023 mM, Lineweaver–Burk, read-out: Ki values): 3.9 µM; Ki ([3]; three inhibitor concentrations, five substrate concentrations (0.15–0.75 mM), read-out: Average Ki): 2.8 µM
316.98 ± 0.02 µM | 396.74 ± 0.03 µM | CCN(CC)c1ccc(C(=C2C=CC(=[N+](CC)CC)C=C2)c2cc(O)c(S(=O)(=O)[O-])cc2S(=O)(=O)[O-])cc1.CCN(CC)c1ccc(C(=C2C=CC(=[N+](CC)CC)C=C2)c2cc(O)c(S(=O)(=O)[O-])cc2S(=O)(=O)[O-])cc1.[Ca+2] [Patent Blue V] | 267.46 ± 0.09 µM | 5 mg/kg | –
2049.1 ± 0.1 µM | – | O=C1NS(=O)(=O)c2ccccc21 [Saccharin] | – | 5 mg/kg | inhibition against hCAII (hCAII [9]): low micromolar inhibition
4566.2 ± 0.06 µM | 3475.1 ± 0.1 µM | C/C=C/C=C/C(=O)O [Sorbic Acid, Sorbic acid] | 1801.4 ± 0.04 µM | 25 mg/kg | –
350.05 ± 0.03 µM | 488.63 ± 0.07 µM | O=S(=O)([O-])c1ccc(N=Nc2c(O)ccc3cc(S(=O)(=O)[O-])ccc23)cc1.[Na+].[Na+] [Sunset Yellow FCF] | 680.82 ± 0.05 µM | 4 mg/kg | –
652.25 ± 0.05 µM | 621.83 ± 0.05 µM | O=C([O-])C1=NN(c2ccc(S(=O)(=O)[O-])cc2)C(=O)C1N=Nc1ccc(S(=O)(=O)[O-])cc1.[Na+].[Na+].[Na+] (centres unmarked) [Tartrazine] | 659.67 ± 0.07 µM | 7.5 mg/kg | –
